These results are taken from patent US20200289598A1, “SOYBEAN SEED EXTRACT, METHOD FOR PRODUCING THE SAME AND USES THEREOF” (CHARSIRE BIOTECHNOLOGY CORP., priority 2016, published 2020).

Series [1] relates to wounds of STZ-induced diabetic rats. In words: Wound closure test in STZ-induced diabetic rats. As to conditions: mean ± SEM. In kind it is in vivo, rat. From the text: Approximately 8 weeks old, with body weight rages of 250 g to 300 g SD male rats were obtained from National Laboratory Animal Center, Taiwan. After 7 days of quarantine, the rats were moved until the body weight over 350 g. The rats were identified by ear notch of the animals. Each cage tag was labeled with the cage number, study number, sex and group name. The rats were housed 2 per cage in polycarbonate cage in the AAALAC accredited animal facility. […] Laboratory Rodent Diet 5001 (PMI® Nutrition International, Inc., MO, USA) were supplied ad libitum throughout the study period. Tap water was supplied ad libitum via bottles attached to the cages. Samples (test articles) were prepared according to Table 4. [table] CGS-21680: Specific adenosine A2A subtype receptor agonist, prepared by adding 1.67 mg of CGS-21680 in 248.4 g of cream base. Diabetic rats: The rats with body weight over 300 g were administrated with one dose of Streptozotocin (STZ, 65 mg/kg) by intravenous injection. The STZ-induced rats with high blood sugar (over 300 mg/dL) for 2 months were selected to conduct the wound closure test. Trauma surgeries for diabetic rats: The diabetic rats with weight lower than 300 g were eliminated and the rest were randomized into 6 groups. The rats were then anesthetized with pentobarbital and hairs on surgical area (dorsal area) were removed. […] Medication and wound closure measurement: The animals were weighed and the area of wounds was measured every other day for evaluation of wound closure. Medications were applied to each wound twice a day and the wounds were covered with cheesecloth. The hoods were worn on the necks of the rats to prevent the wounds from receiving animal scratches. […] When taking pictures, a standard ruler was placed beside the wounds. Before analyzing the wounds with Image pro (Media cybernetics), length was standardized with the standard ruler in the picture to avoid the errors caused by different picturing distances. Data analysis and statistics: Three wound areas on the rats' backs were analyzed by Image pro. The original wound areas were the areas of day zero. The original wound areas minus the wound areas at different time points and then divided by the original wound areas to get the wound closure percentages. The mean of three wound closure percentages of each rat represents the wound closure of each rat. The data was shown as mean±standard error (SEM). The p-values of the testing results were calculated by t-test in statistics software (SYSTAT, Systat software inc). P<0.05 means there is a significant difference, and it is marked with *. P<0.01 means there is a very significant difference, and it is marked with **. P<0.001 means there is an extremely significant difference, and it is marked with ***.

Series [2] relates to MDA-MB-231 (human breast cancer cells) tumor. In words: Tumor growth in MDA-MB-231 tumor-bearing nude mice. In kind it is in vivo. As to conditions: CTX one injection a week, test article topical 0.1 g/day. From the text: Cell line and reagent: MDA-MB-231 (purchased from Food Industry Research and Development Institute, Taiwan); […] Animal facility: Approximately 6 to 8 week-old BALB/cAnN.Cg-Foxn1^nu/CrlNarl female mice were obtained from National Laboratory Animal Center, Taiwan. […] Water and food was supplied ad libitum throughout the study period. The mice were housed according to the standard procedure of the laboratory animal committee. Tumor-bearing mice induction: […] The weight, appetite, blood sugar and tumor size growth were observed every week to assess the appearance of the normal physiological state of nude mice to understand the efficacy of the extract composition. Grouping the tumor-bearing mice and treatment: […] The chemotherapy drug (an injection a week) was administrated with the extract composition. […] [table] Clinical assessment of tumor-bearing mice: The physiological state and tumor size of the tumor-bearing mice were assessed including weight, appetite, blood sugar and tumor size.

The format of series [3] is in vivo, nude mice. The procedure:
Animal facility: Approximately 6 to 8 week-old BALB/cAnN.Cg-Foxn1^nu/CrlNarl female mice were obtained from National Laboratory Animal Center, Taiwan. The environment conditions were: temperature: 25±1° C.; humidity: 60±5%; independent air condition; controlled light cycle. Water and food was supplied ad libitum throughout the study period. The mice were housed according to the standard procedure of the laboratory animal committee.
Tumor-bearing mice induction: MDA-MB-231 cells (human breast cancer cells) were cultured until 5×10^6 cells, the cells required in injection of female nude mice were collected with trypsin, and resuspended in PBS solution for tumor induction. The tumor of nude mice was induced by subcutaneous injected with 100 μL of cell solution and released back into the cages to be a normal diet. When the tumor was about 300 mm^3, the mice were subjected to topical administration of different doses of the extract composition and grouping into CTX group and non-CTX group. The weight, appetite, blood sugar and tumor size growth were observed every week to assess the appearance of the normal physiological state of nude mice to understand the efficacy of the extract composition.
Grouping the tumor-bearing mice and treatment: When the tumor was about 300 mm^3, the mice were subjected to grouping as shown in Table 12. The chemotherapy drug (an injection a week) was administrated with the extract composition. The treating group was topically applied to the tumor area, skin around the tumor, and the whole back skin with the dosage of 0.1 g/day. After treatment for 5 weeks, the weight, appetite, blood sugar and tumor size growth of the nude mice were observed.
Clinical assessment of tumor-bearing mice: The physiological state and tumor size of the tumor-bearing mice were assessed including weight, appetite, blood sugar and tumor size. The tumor size was calculated according to: tumor volume (mm^3)=ab^2/2, to assess the tumor growth rate.

“And” between values parts separate entries of the source, which are not always exact repeats. Equal values may be shown once. Read-outs that look alike come from different tables or passages of the source.

Consider `CCNC(=O)[C@H]1O[C@@H](n2cnc3c(N)nc(NCCc4ccc(CCC(=O)O)cc4)nc32)[C@H](O)[C@@H]1O` [CGS-21680], for which the wound closure percentage is 21.87±5.61% and 21.87 ± 5.61 *** % in series [1] (Experimental 1, day 4, topical twice a day, CGS-21680 10 μg/wound); 25.45 ± 4.46 *** % in series [1] (Experimental 1, day 6, topical twice a day, CGS-21680 10 μg/wound); 45.88 ± 4.28 *** % in series [1] (Experimental 1, day 8, topical twice a day, CGS-21680 10 μg/wound); 93.80 ± 2.79 *** % in series [1] (Experimental 1, day 10, topical twice a day, CGS-21680 10 μg/wound); 91.15 ± 2.72 ** % in series [1] (Experimental 1, day 12, topical twice a day, CGS-21680 10 μg/wound); 98.74 ± 0.60 ** % in series [1] (Experimental 1, day 14, topical twice a day, CGS-21680 10 μg/wound). For the same compound, the wound closure percentage in series [1] (Experimental 2, day 4, topical twice a day, CGS-21680 6.7 μg/wound) is 40.02 ± 5.03 ** %; in series [1] (Experimental 2, day 6, topical twice a day, CGS-21680 6.7 μg/wound), 63.09 ± 2.58 *** %; in series [1] (Experimental 2, day 8, topical twice a day, CGS-21680 6.7 μg/wound) it was 77.21 ± 2.44 *** %; in series [1] (Experimental 2, day 10, topical twice a day, CGS-21680 6.7 μg/wound) it was 80.93 ± 2.08 *** %; in series [1] (Experimental 2, day 12, topical twice a day, CGS-21680 6.7 μg/wound) it was 96.91 ± 1.08 *** %; in series [1] (Experimental 2, day 14, topical twice a day, CGS-21680 6.7 μg/wound), 99.17 ± 0.54 *** %.
Consider `O=P1(N(CCCl)CCCl)NCCCO1` (centres unmarked) [CTX, cyclophosphamide], for which the tumor size elimination in series [2] (4/28) was 0.00 mm^3; in series [2] (5/2), 99.61 mm^3; in series [2] (5/5), 78.95 mm^3; in series [2] (5/9) it was −19.52 mm^3; in series [2] (5/12), −45.11 mm^3; in series [2] (5/16), −157.57 mm^3. For the same compound, the tumor size elimination in series [2] (5/19) is on record as −176.41 mm^3; in series [2] (5/23) it was −264.85 mm^3; in series [2] (5/26), −293.68 mm^3; in series [2] (5/30), −391.42 mm^3. Moreover, the average body weight in series [3] (4/28) is 19.64 g; in series [3] (5/2), 20.04 g; in series [3] (5/5), 18.46 g; in series [3] (5/9), 19.00 g; in series [3] (5/12), 19.51 g; in series [3] (5/16) it was 20.99 g. Also, the average body weight in series [3] (5/19) stood at 20.42 g; in series [3] (5/23), 21.16 g; in series [3] (5/26) it was 20.21 g; in series [3] (5/30) it was 22.18 g. The average blood sugar is recorded as 113 dL in series [3] (5/2); 93 dL in series [3] (5/9); 109 dL in series [3] (5/16); 122 dL in series [3] (5/23); 108 dL in series [3] (5/30). Also, the average food intake in series [3] (5/5~5/9) is on record as 4.89 g; in series [3] (5/9~5/12), 5.61 g; in series [3] (5/12~5/16), 5.38 g; in series [3] (5/16~5/19) it was 5.21 g; in series [3] (5/19~5/23), 4.70 g; in series [3] (5/23~5/26), 4.76 g. In series [3] (5/26~5/30), this compound had an average food intake of 5.22 g.
